Molecular target: T1, Prostaglandin G/H synthase 1 (Ovis aries) (UniProt P05979)
T1 sequence (whole entry): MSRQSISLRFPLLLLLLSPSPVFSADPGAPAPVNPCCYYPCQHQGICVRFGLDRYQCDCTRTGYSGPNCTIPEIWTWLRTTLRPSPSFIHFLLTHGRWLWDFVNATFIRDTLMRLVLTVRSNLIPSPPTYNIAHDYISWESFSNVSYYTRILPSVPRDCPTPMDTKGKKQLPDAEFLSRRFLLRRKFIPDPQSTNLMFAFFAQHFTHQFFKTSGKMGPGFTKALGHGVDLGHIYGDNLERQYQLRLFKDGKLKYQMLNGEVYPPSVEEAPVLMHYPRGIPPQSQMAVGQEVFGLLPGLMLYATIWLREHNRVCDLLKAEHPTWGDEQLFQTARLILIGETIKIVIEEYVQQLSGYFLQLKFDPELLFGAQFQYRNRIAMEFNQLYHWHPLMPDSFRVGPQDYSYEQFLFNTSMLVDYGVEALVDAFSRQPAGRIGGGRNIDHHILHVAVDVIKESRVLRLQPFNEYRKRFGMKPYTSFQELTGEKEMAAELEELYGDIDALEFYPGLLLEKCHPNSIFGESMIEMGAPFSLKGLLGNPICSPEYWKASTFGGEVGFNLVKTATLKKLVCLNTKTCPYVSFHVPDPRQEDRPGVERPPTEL
Assay: Inhibition of ovine COX1 at 100 uM

Question: With `CC(=O)OCC[C@@H]1[C@@]2(C)CCC[C@@](C)(COC(C)=O)[C@@H]2CC[C@@]1(C)O` as the compound, how does the inhibition read?
Answer: The inhibition was 18%.

Question: For `C[C@@]1(CO)CCC[C@]2(C)[C@@H](CCO)[C@](C)(O)CC[C@@H]12`, which inhibition is on record?
Answer: The inhibition was 44%.

Question: With `C/C(=C\C(=O)O)CC[C@@H]1[C@@]2(C)CCC[C@@](C)(CO)[C@@H]2CC[C@@]1(C)O` as the compound, how does the inhibition read?
Answer: Its inhibition is 29%.

Question: How did the inhibition turn out when `CC(=O)OC[C@]1(C)CCC[C@]2(C)[C@@H](CC/C(C)=C/C(=O)O)[C@](C)(O)CC[C@@H]12` was run?
Answer: The inhibition was 2%.
